In ChEMBL document CHEMBL3525982, “Metabolism and pharmacokinetics of indacaterol in humans” (Drug Metab Dispos, 2012):

Experiments:
Serum [1] = test: AUC (0 to 24 hrs) in healthy human serum treated with [14C]indacaterol at 800 ug, po as single dose by HPLC analysis; format: ADME, organism-based; design: time < 24 hr, dose 800 ug, route oral; details: in vivo
Serum [2] = test: Drug level in healthy human serum treated with [14C]indacaterol at 800 ug, po as single dose at 2 hrs by HPLC analysis; format: ADME, organism-based; details: in vivo
Serum [3] = test: Drug level in healthy human serum treated with [14C]indacaterol at 800 ug, po as single dose at 2 hrs by HPLC analysis relative to total radioactivity; format: ADME, organism-based; details: in vivo
Serum [4] = test: AUC (0 to 24 hrs) in healthy human serum treated with [14C]indacaterol at 800 ug, po as single dose by HPLC analysis relative to total radioactivity; format: ADME, organism-based; details: in vivo
[5] = Drug recovery in healthy human urine treated with [14C]indacaterol at 800 ug, po as single dose after 168 hrs postdose by liquid scintillation counting; format: ADME, organism-based; details: in vivo
[6] = Drug recovery in healthy human feces treated with [14C]indacaterol at 800 ug, po as single dose after 168 hrs postdose by liquid scintillation counting; format: ADME, organism-based; details: in vivo
Serum [7] = test: Drug metabolism in healthy human serum treated with [14C]indacaterol at 800 ug, po as single dose by HPLC analysis; format: ADME, organism-based; details: in vivo
[8] = Drug recovery in healthy human feces at 800 ug, po as single dose measured after 168 hrs postdose by liquid scintillation counting; format: ADME, organism-based; details: in vivo
Homo sapiens [9] = test: Cmax in healthy human assessed as total radioactivity at 800 ug, po as single dose by LC-MS/MS analysis; format: ADME, organism-based; design: dose 800 ug, route oral; details: in vivo
Serum [10] = test: Drug metabolism in healthy human serum assessed as 5,6-diethyl-2,3-dihydro-1H-inden-2-amine formation at 800 ug, po as single dose by HPLC analysis; format: ADME, organism-based; details: in vivo
Homo sapiens [11] = test: AUC (0 to last) in healthy human assessed as total radioactivity at 800 ug, po as single dose by LC-MS/MS analysis; format: ADME, organism-based, Plasma; details: in vivo
Serum [12] = test: AUC (0 to 24 hrs) in healthy human serum at 800 ug, po as single dose by HPLC analysis; format: ADME, organism-based; design: time < 24 hr, dose 800 ug, route oral; details: in vivo
Serum [13] = test: AUC (0 to 24 hrs) in healthy human serum at 800 ug, po as single dose by HPLC analysis relative to total radioactivity; format: ADME, organism-based; details: in vivo
[14] = Drug recovery in healthy human feces assessed as total radioactivity at 800 ug, po as single dose after 168 hrs postdose by liquid scintillation counting; format: ADME, organism-based; details: in vivo
Serum [15] = test: Drug metabolism in healthy human serum assessed as 2-(5,6-diethyl-2,3-dihydro-1H-inden-2-ylamino)acetic acid formation at 800 ug, po as single dose by HPLC analysis; format: ADME, organism-based; details: in vivo
[16] = Drug recovery in healthy human urine assessed as total radioactivity at 800 ug, po as single dose after 168 hrs postdose by liquid scintillation counting; format: ADME, organism-based; details: in vivo
Serum [17] = test: Drug metabolism in healthy human serum assessed as (2S,3S,4S,5R,6R)-6-((5,6-diethyl-2,3-dihydro-1H-inden-2-yl)((S)-2-hydroxy-2-(8-hydroxy-2-oxo-1,2-dihydroquinolin-5-yl)ethyl)amino)-3,4,5-trihydroxytetrahydro-2H-pyran-2-carboxylic acid formation at 800 ug, po as single dose by HPLC analysis; format: ADME, organism-based; details: in vivo
Serum [18] = test: Drug level in healthy human serum at 800 ug, po as single dose at 2 hrs by HPLC analysis; format: ADME, organism-based; details: in vivo
Homo sapiens [19] = test: Tmax in healthy human assessed as total radioactivity at 800 ug, po as single dose by LC-MS/MS analysis; format: ADME, organism-based; details: in vivo
Serum [20] = test: Drug level in healthy human serum at 800 ug, po as single dose at 2 hrs by HPLC analysis relative to total radioactivity; format: ADME, organism-based; details: in vivo
[21] = Drug recovery in healthy human feces at 800 ug, po as single dose after 168 hrs postdose by liquid scintillation counting; format: ADME, organism-based; details: in vivo
[22] = Cmax in healthy human at 800 ug, po as single dose by LC-MS/MS analysis; format: ADME, organism-based; design: dose 800 ug, route oral; details: in vivo
[23] = Drug recovery in healthy human urine at 800 ug, po as single dose after 168 hrs postdose by liquid scintillation counting; format: ADME, organism-based; details: in vivo
[24] = Tmax in healthy human at 800 ug, po as single dose by LC-MS/MS analysis; format: ADME, organism-based; details: in vivo
[25] = AUC (0 to 12 hrs) in healthy human at 800 ug, po as single dose by LC-MS/MS analysis; format: ADME, organism-based; design: dose 800 ug, time < 12 hr, route oral; details: plasma

CCc1cc2c(cc1CC)CC(NC[C@H](O)c1ccc(O[C@@H]3O[C@H](C(=O)O)[C@@H](O)[C@H](O)[C@H]3O)c3[nH]c(=O)ccc13)C2
AUC (Serum [1]): 0.6 ng.Eq.hr/ml | Drug uptake (Serum [2]): 0.1 ngequiv/ml | Drug uptake (Serum [3]): 7.42% | Drug uptake (Serum [4]): 4.22% | Drug recovery [5]: 0.53% | Drug recovery [6]: 0%

CCc1cc2c(cc1CC)CC(N(C[C@H](O)c1ccc(O)c3[nH]c(=O)ccc13)[C@@H]1O[C@H](C(=O)O)[C@@H](O)[C@H](O)[C@H]1O)C2
Drug metabolism (Serum [7]): metabolite_detected

CCc1cc2c(cc1CC)CC(NCC(=O)O)C2
Drug metabolism (Serum [7]): metabolite_detected | Drug recovery [5]: 0.97% | Drug recovery [6]: 0%

CCc1cc2c(cc1CC)CC(N)C2
Drug recovery [8]: <= 6% | Drug metabolism (Serum [7]): metabolite_detected | Drug recovery [5]: 0% | Drug recovery [6]: 1.7%

CCc1cc2c(cc1[14CH2]C)CC(NC[C@H](O)c1ccc(O)c3[nH]c(=O)ccc13)C2 (stereo partly drawn)
Cmax (Homo sapiens [9]): 1.4 ng.Eq/ml | Drug metabolism (Serum [10]): metabolite_detected | AUClast (Homo sapiens [11]): 27.2 ng.Eq.hr/ml | AUC (Serum [12]): 4.58 ng.Eq.hr/ml | Drug uptake (Serum [13]): 32.5% | Drug recovery [14]: 85.3% | Drug metabolism (Serum [15]): metabolite_detected | Drug recovery [16]: 9.7% | Drug metabolism (Serum [17]): metabolite_detected | Drug uptake (Serum [18]): 0.42 ngequiv/ml | Tmax (Homo sapiens [19]): 2.5 h | Drug uptake (Serum [20]): 31.4%

CCc1cc2c(cc1C(C)O)CC(NC[C@H](O)c1ccc(O[C@@H]3O[C@H](C(=O)O)[C@@H](O)[C@H](O)[C@H]3O)c3[nH]c(=O)ccc13)C2 (stereo partly drawn)
AUC (Serum [1]): 0.82 ng.Eq.hr/ml | Drug uptake (Serum [2]): 0.12 ngequiv/ml | Drug uptake (Serum [3]): 9.31% | Drug uptake (Serum [4]): 5.78% | Drug recovery [5]: 0.83% | Drug recovery [6]: 0%

CCc1cc2c(cc1C(C)O)CC(NC[C@H](O)c1ccc(O)c3[nH]c(=O)ccc13)C2 (stereo in doubt; P26.9)
Drug recovery [8]: 17% | AUC (Serum [1]): 1.8 ng.Eq.hr/ml | Drug uptake (Serum [2]): 0.18 ngequiv/ml | Drug uptake (Serum [3]): 13.2% | Drug uptake (Serum [4]): 12.4% | Drug recovery [5]: 1.24% | Drug recovery [6]: 17.44%

CCc1cc2c(cc1C(C)O)CC(NC[C@H](O)c1ccc(O)c3[nH]c(=O)ccc13)C2 (stereo in doubt; P30.3)
Drug recovery [8]: <= 6% | Drug recovery [5]: 0.31% | Drug recovery [6]: 6.33%

CCc1cc2c(cc1CC)CC(NC[C@H](O)c1ccc(O)c3[nH]c(=O)ccc13)C2.O=C(O)/C=C\C(=O)O [INDACATEROL MALEATE]
Drug recovery [21]: 54.42% | Drug recovery [8]: 54% | Cmax [22]: 0.47 ng/mL | Drug recovery [23]: 0.34% | Tmax [24]: 1.75 h | AUC(0-t) at 12 h [25]: 1.81 ng·h/mL
